We go through 20 molecules from patent publication US8242145B2, “Cyclic diaryl ether compounds as antagonists of prostaglandin D2 receptors” (Panmira Pharmaceuticals, LLC, priority 2008, dated 2012).

pIC50: −log10 of the molar value. Bounds are passed on as bounds.

The target of one test is T1, human DP1 receptor (Homo sapiens, UniProt Q13258).
T1 construct: tissue Biological Specialty Corporation; host or cells: human platelets, membranes
T1 sequence (Q13258 1-359): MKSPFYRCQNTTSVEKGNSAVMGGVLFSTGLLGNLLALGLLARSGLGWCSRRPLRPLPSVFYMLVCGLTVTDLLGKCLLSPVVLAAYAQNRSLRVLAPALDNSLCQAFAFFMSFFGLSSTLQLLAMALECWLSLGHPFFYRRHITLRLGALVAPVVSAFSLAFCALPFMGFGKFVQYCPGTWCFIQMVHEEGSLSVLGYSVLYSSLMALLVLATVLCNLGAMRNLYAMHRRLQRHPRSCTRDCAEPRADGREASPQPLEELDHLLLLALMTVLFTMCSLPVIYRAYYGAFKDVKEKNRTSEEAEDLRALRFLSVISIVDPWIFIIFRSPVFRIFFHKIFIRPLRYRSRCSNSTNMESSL
Description: DP1 radioligand binding assay using [3H]BWA868C. Particulars: hDP1 binding. Summed up: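 Human platelet membranes (20 μg protein/well) incubated 60 min at room temperature with 2 nM [3H]BWA868C in 50 mM Hepes, 10 mM MnCl2, 1 mM EDTA, ±0.2% human serum albumin, pH 7.4. Bound label measured after filtration; nonspecific binding defined with 10 μM BW A868C. IC50 from titration curves.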

Another test has as its target T2, human DP2 receptor (Homo sapiens, UniProt Q9Y5Y4).
T2 construct: expressed in transfected cells
T2 sequence (Q9Y5Y4 1-395): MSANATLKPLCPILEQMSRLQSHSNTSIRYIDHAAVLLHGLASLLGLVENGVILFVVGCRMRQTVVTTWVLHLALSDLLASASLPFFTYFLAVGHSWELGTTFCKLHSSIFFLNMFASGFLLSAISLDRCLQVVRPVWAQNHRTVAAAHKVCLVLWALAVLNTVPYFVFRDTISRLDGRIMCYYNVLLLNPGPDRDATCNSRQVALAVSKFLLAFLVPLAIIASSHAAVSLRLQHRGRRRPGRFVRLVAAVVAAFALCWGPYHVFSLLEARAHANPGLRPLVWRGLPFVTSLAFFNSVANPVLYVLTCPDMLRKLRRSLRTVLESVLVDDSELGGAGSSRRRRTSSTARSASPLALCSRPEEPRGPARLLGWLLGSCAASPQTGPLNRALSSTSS
Description: DP2/CRTH2 radioligand binding assay using [3H]PGD2. The note with it: hDP2 (CRTH2) binding assay. Summed up:
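HEK293 membranes with stable recombinant human DP2, incubated with 1 nM [3H]PGD2 and compound 60 min at room temperature in pH 7.4 HEPES/MnCl2/EDTA buffer, with or without 0.2% human serum albumin.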

Test [1] addresses T3, recombinant human CRTH2 receptor (Homo sapiens, UniProt Q9Y5Y4).
T3 construct: expressed in transfected cells
T3 sequence (Q9Y5Y4 1-395): T2 sequence (Q9Y5Y4 1-395)
Put plainly: GTPγS binding assay. The format is biochemical. Particulars: +HSA; read-out: hDP2 GTPγS μM (+HSA). In a few lines:
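Membranes from CHO cells stably expressing recombinant receptor (~12.5 μg/well), incubated 60 min at 30° C with 0.05 nM [^35S]-GTPγS, 80 nM PGD2, 5 μM GDP in pH 7.4 Hepes buffer with 0.2% human serum albumin. Filter-bound radioactivity counted; specific binding = total minus binding without PGD2; IC50 from titration curves.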

The term pIC50 denotes the negative decadic logarithm of the IC50, by convention in mol/L. A low value points to a large IC50. For the molecule `C[C@H]1[C@@H](c2ccccc2)OC(=O)N1Cc1cc(C(F)(F)F)ccc1Oc1cccc(CC(=O)O)c1` [Compound 1-77, {3-[2-((4S,5R)-4-Methyl-2-oxo-5-phenyl-oxazolidin-3-ylmethyl)-4-trifluoromethyl-phenoxy]-phenyl}-acetic acid], the pIC50 at human DP1 receptor and at human DP2 receptor was more than 6.52 each time. Besides, the IC50 in test [1] lay in the range of 0.3 to 1 µM.

With `O=C(O)Cc1cccc(Oc2ccc(Br)cc2CN2C[C@H](c3ccccc3)OC2=O)c1` [Compound 1-48, {3-[4-Bromo-2-((S)-2-oxo-5-phenyl-oxazolidin-3-ylmethyl)-phenoxy]-phenyl}-acetic acid], the pIC50 at human DP1 receptor was 6.00 to 6.52; on human DP2 receptor, more than 6.52. The IC50 in test [1] was more than 1 µM.

As to `COc1ccc(CC(=O)O)cc1Oc1ccc(-c2ccncc2)cc1CN1C(=O)O[C@H](c2ccccc2)[C@@H]1C` [Compound 1-41, {4-Methoxy-3-[2-((4S,5R)-4-methyl-2-oxo-5-phenyl-oxazolidin-3-ylmethyl)-4-pyridin-4-yl-phenoxy]-phenyl}-acetic acid], the pIC50 on human DP1 receptor is less than 6.00; on human DP2 receptor, more than 6.52. Further, the IC50 in test [1] was in the range of 0.3 to 1 µM.

`COc1ccc(CC(=O)O)cc1Oc1ccc(Br)cc1CN1C(=O)O[C@@H](c2cc(C(F)(F)F)cc(C(F)(F)F)c2)[C@H]1C` [Compound 1-64, (3-{2-[(4R,5S)-5-(3,5-Bis-trifluoromethyl-phenyl)-4-methyl-2-oxo-oxazolidin-3-ylmethyl]-4-bromo-phenoxy}-4-methoxy-phenyl)-acetic acid]: the pIC50 at human DP1 receptor is less than 6.00; on human DP2 receptor, 6.00 to 6.52. The IC50 in test [1] is more than 1 µM.

`C[C@@H]1[C@H](c2ccccc2)OC(=O)N1Cc1cc(Br)ccc1Oc1cc(CC(=O)O)ccc1O` [Compound 1-87, {3-[4-Bromo-2-((4R,5S)-4-methyl-2-oxo-5-phenyl-oxazolidin-3-ylmethyl)-phenoxy]-4-hydroxy-phenyl}-acetic acid]: the pIC50 is less than 6.00 at human DP1 receptor and more than 6.52 on human DP2 receptor. Also, the IC50 in test [1] is less than 0.3 µM.

For `C[C@@H]1[C@H](c2cc(F)cc(F)c2)OC(=O)N1Cc1cc(Br)ccc1Oc1cccc(CC(=O)O)c1` [Compound 1-51], the pIC50 at human DP1 receptor was 6.00 to 6.52; on human DP2 receptor, more than 6.52. Also, the IC50 in test [1] was less than 0.3 µM.

In the case of `C[C@H]1[C@@H](c2ccccc2)OC(=O)N1Cc1cc(Br)ccc1Oc1cc(CC(=O)O)cc(C(F)(F)F)c1` [Compound 1-28, {3-[4-Bromo-2-((4S,5R)-4-methyl-2-oxo-5-phenyl-oxazolidin-3-ylmethyl)-phenoxy]-5-trifluoromethyl-phenyl}-acetic acid], the pIC50 at human DP1 receptor was less than 6.00; at human DP2 receptor it was more than 6.52. In test [1], the IC50 was less than 0.3 µM.

`O=C(O)Cc1cccc(Oc2ccc(Br)cc2CN2C(=O)OC[C@@H]2Cc2ccccc2)c1` [Compound 1-46, {3-[2-((S)-4-Benzyl-2-oxo-oxazolidin-3-ylmethyl)-4-bromo-phenoxy]-phenyl}-acetic acid]: the pIC50 at human DP1 receptor was less than 6.00; at human DP2 receptor, more than 6.52. In test [1], the IC50 is less than 0.3 µM.

With `C[C@@H]1[C@H](c2ccccc2)OC(=O)N1Cc1cc(C(F)(F)F)ccc1Oc1cc(CC(=O)O)ccc1-c1ccccc1` [Compound 1-80, {2-[2-((4R,5S)-4-Methyl-2-oxo-5-phenyl-oxazolidin-3-ylmethyl)-4-trifluoromethyl-phenoxy]-biphenyl-4-yl}-acetic acid], the pIC50 on human DP1 receptor is less than 6.00; on human DP2 receptor, more than 6.52. Also, the IC50 in test [1] was less than 0.3 µM.

For the molecule `C[C@@H]1[C@H](c2ccccc2)OC(=O)N1Cc1cc(C(F)(F)F)ccc1Oc1cc(CC(=O)O)ccc1OCc1ccccc1` [Compound 1-67, {4-Benzyloxy-3-[2-((4R,5S)-4-methyl-2-oxo-5-phenyl-oxazolidin-3-ylmethyl)-4-trifluoromethyl-phenoxy]-phenyl}-acetic acid], the results for the pIC50 on human DP1 receptor and on human DP2 receptor were less than 6.00 and more than 6.52, respectively. Also, in test [1], the IC50 was 0.3 to 1 µM.

As to `C[C@H]1[C@@H](c2ccccc2)OC(=O)N1Cc1cc(Br)ccc1Oc1cccc(CC(=O)O)c1` [Compound 1-15, {3-[4-Bromo-2-((4S,5R)-4-methyl-2-oxo-5-phenyl-oxazolidin-3-ylmethyl)-phenoxy]-phenyl}-acetic acid], the pIC50 at human DP1 receptor and at human DP2 receptor was more than 6.52 each time. In addition, the IC50 in test [1] is 0.3 to 1 µM.

For the molecule `COc1ccc(CC(=O)O)cc1Oc1ccc(Br)cc1CN1C(=O)O[C@@H]2Cc3ccccc3[C@@H]21` [Compound 2-5, {3-[4-Bromo-2-((3aS,8aR)-2-oxo-8,8a-dihydro-3aH-indeno[1,2-d]oxazol-3-ylmethyl)-phenoxy]-4-methoxy-phenyl}-acetic acid], the values for the pIC50 on human DP1 receptor and at human DP2 receptor were less than 6.00 and more than 6.52, respectively. Besides, the IC50 in test [1] was less than 0.3 µM.

With `COc1ccc(CC(=O)O)cc1Oc1ccc(S(C)(=O)=O)cc1CN1C(=O)O[C@H](c2ccccc2)[C@@H]1C` [Compound 1-34, {3-[4-Methanesulfonyl-2-((4S,5R)-4-methyl-2-oxo-5-phenyl-oxazolidin-3-ylmethyl)-phenoxy]-4-methoxy-phenyl}-acetic acid], the values for the pIC50 at human DP1 receptor and at human DP2 receptor were less than 6.00 and 6.00 to 6.52, respectively. The IC50 in test [1] is more than 1 µM.

On to `COc1ccc(CC(=O)O)cc1Oc1ccc(-c2ccc(F)cc2)cc1CN1C(=O)O[C@H](c2ccccc2)[C@@H]1C` [Compound 1-36, {3-[4′-Fluoro-3-((4S,5R)-4-methyl-2-oxo-5-phenyl-oxazolidin-3-ylmethyl)-biphenyl-4-yloxy]-4-methoxy-phenyl}-acetic acid], for which the pIC50 is less than 6.00 on human DP1 receptor and more than 6.52 at human DP2 receptor. In test [1], the IC50 was more than 1 µM.

Turning to `C[C@H]1[C@@H](c2cc(F)cc(F)c2)OC(=O)N1Cc1cc(Br)ccc1Oc1cccc(CC(=O)O)c1` [Compound 1-17, (3-{4-Bromo-2-[(4S,5R)-5-(3,5-difluoro-phenyl)-4-methyl-2-oxo-oxazolidin-3-ylmethyl]-phenoxy}-phenyl)-acetic acid], the pIC50 on human DP1 receptor and at human DP2 receptor was more than 6.52 each time. The IC50 in test [1] was less than 0.3 µM.

`C[C@H]1[C@@H](c2ccccc2)OC(=O)N1Cc1cc(Br)ccc1Oc1ccc(Cl)c(CC(=O)O)c1` [Compound 1-24, {5-[4-Bromo-2-((4S,5R)-4-methyl-2-oxo-5-phenyl-oxazolidin-3-ylmethyl)-phenoxy]-2-chloro-phenyl}-acetic acid]: the negative logarithm of the IC50 (pIC50) was more than 6.52 at human DP1 receptor and 6.00 to 6.52 on human DP2 receptor. Further, the IC50 in test [1] was more than 1 µM.

Take `COc1ccc(CC(=O)O)cc1Oc1ccc(C(F)(F)F)cc1CN1CCOC1=O` [Compound 1-9, {4-Methoxy-3-[2-(2-oxo-oxazolidin-3-ylmethyl)-4-trifluoromethyl-phenoxy]-phenyl}-acetic acid]: the results for the pIC50 at human DP1 receptor and at human DP2 receptor were less than 6.00 and more than 6.52, respectively. Besides, the IC50 in test [1] was less than 0.3 µM.

As to `COc1ccc(CC(=O)O)cc1Oc1ccc(Br)cc1CN1C(=O)O[C@@H](c2cc(F)cc(F)c2)[C@H]1C` [Compound 1-63, (3-{4-Bromo-2-[(4R,5S)-5-(3,5-difluoro-phenyl)-4-methyl-2-oxo-oxazolidin-3-ylmethyl]-phenoxy}-4-methoxy-phenyl)-acetic acid], the figures for the pIC50 at human DP1 receptor and at human DP2 receptor were less than 6.00 and more than 6.52, respectively. For the same molecule, the IC50 in test [1] was less than 0.3 µM.

`C[C@H]1[C@@H](c2ccccc2)OC(=O)N1Cc1cc(C(F)(F)F)ccc1Oc1cc(CC(=O)O)ccc1OCc1ccccc1` [Compound 1-33, {4-Benzyloxy-3-[2-((4S,5R)-4-methyl-2-oxo-5-phenyl-oxazolidin-3-ylmethyl)-4-trifluoromethyl-phenoxy]-phenyl}-acetic acid]: the results for the pIC50 at human DP1 receptor and on human DP2 receptor were less than 6.00 and more than 6.52, respectively. For the same molecule, in test [1], the IC50 was less than 0.3 µM.

Turning to `Cc1noc(C)c1-c1ccc(Oc2cccc(CC(=O)O)c2)c(CN2C(=O)O[C@H](c3ccccc3)[C@@H]2C)c1` [Compound 1-76, {3-[4-(3,5-Dimethyl-isoxazol-4-yl)-2-((4S,5R)-4-methyl-2-oxo-5-phenyl-oxazolidin-3-ylmethyl)-phenoxy]-phenyl}-acetic acid], the negative logarithm of the IC50 (pIC50) on human DP1 receptor and on human DP2 receptor was more than 6.52 throughout. In addition, the IC50 in test [1] was in the range of 0.3 to 1 µM.
